Source: patent publication US20250346629A1, “USE OF D-ENANTIOMERIC PEPTIDE LIGANDS OF MONOMERIC ALPHA-SYNUCLEIN FOR THE THERAPY OF VARIOUS SYNUCLEINOPATHIES” (PRIAVOID GMBH, priority 2021, published 2025)
Square brackets hold non-standard residues; d marks the D form. Peptide text beside a SMILES is read from it.

Assays:
[1] = test system: αSynA53T-YFP cells (HEK293T); experiment: Cell assay for seeded α-synuclein aggregation (FIG. 19); format: cell-based, human; conditions: seeded with 30 nM PFF oligomers, day 3, two-stage transfection
Method: A construct encoding full-length A53T-mutated human α-syn and fused with YFP at the C-terminus was synthesized and introduced into the pMK-RQ expression vector (GeneArt; Thermo Fisher Scientific, USA). The α-synA53T-YFP construct was sub-cloned using the restriction sites NheI (5′) and NotI (3′) in the vector pIRESpuro3 (Clontech; Takara Bio, JPN). HEK293T cells (American Type Culture Collection) were cultured in high-glucose Dulbecco's Modified Eagle's Medium (DMEM; Sigma-Aldrich, USA) which had 10% fetal calf serum (Sigma-Aldrich, USA), 50 units/ml penicillin, and also 50 μg/ml streptomycin (Sigma-Aldrich, USA) added thereto. The cells were cultured at 37° C. in a humidified atmosphere with 5% CO2.
The cells plated in DMEM were transfected with Lipofectamine 2000 (Invitrogen; Thermo Fisher Scientific, USA). Stable cells were selected in DMEM with 1 μg/ml puromycin (EMD Millipore, USA). Monoclonal cell lines were produced by means of fluorescence-activated cell sorting of a polyclonal cell population in 96-well plates using a MoFlo XDP cell sorter (Beckman Coulter, USA). […]
The plates were then incubated at 37° C. in a humidified atmosphere with 5% CO2. On the third day, the cells were imaged in an IN Cell Analyzer 6500HS system (Cytiva, USA) using the blue and green fluorescence channels, and analyzed by the IN Carta Image Analysis software (Cytiva, USA) which had been used to establish an algorithm for identifying intracellular aggregates in living cells. Four wells were used for each condition and 16 images were recorded per well and analyzed by a fully-automated algorithm in order to prevent distortions. […]
In order to validate the inhibitory effect of SVD-1a in cells, use was made of the α-synA53T-YFP cell system which stably expresses human α-syn with the familial A53T mutation, fused with YFP, in HEK293T cells, and the fluorescence-based detection of aggregates makes it possible to clearly show the strongly fluorescent spots within the cells against the background, intracellularly after seeding with PFF oligomers. […] Panels C, F and I show αSynA53T-YFP fluorescence. […]

α-syn = α-syn (Homo sapiens, UniProt P37840); experiment: Kinetic single-cycle SPR assay with α-syn and immobilized peptides, CMD200M (FIG. 11); format: binding; conditions: kinetic 1:1 interaction model
Method: The measurements were carried out using an 8K-Biacore device (Cytiva, USA). The interactions were measured using single-cycle kinetics experiments. In all assays, the peptide compounds were immobilized as ligands on the sensor surface and recombinant α-syn was injected into the flow as the analyte. […] Surface quenching was carried out with 1 M ethanolamine at pH 8.3. Unless stated otherwise, the kinetic experiments were carried out at a flow rate of 30 μl/min in PBS, pH 7.4. The surface was regenerated between cycles using 30 s injections of 2 M Gua-HCl at 30 μl/min. Data evaluation was performed using the evaluation software Biacore insight v3.0 (Cytiva, USA).
The experiment was carried out as an individual measurement.

full-length α-syn = full-length α-syn (Homo sapiens, UniProt P37840); experiment: MST measurement of fluorophore-labeled peptides with full-length α-syn (FIG. 10); format: binding; conditions: 100 nM labeled peptide, PBS pH 7.4, 25° C., individual measurement
Method: The peptides were fluorescence labeled by means of cysteine-maleimide coupling. SVD-1_Cys and SVD 1a_Cys were fluorescence labeled at the C-terminus with a fivefold or tenfold molar excess of TCEP and CF633-PEG2-maleimide (Sigma-Aldrich, USA). The labeling reaction was carried out in 25 mM NaPi, PH 7.0, for 2 h at RT. The labeled peptides were purified at 25° C. using an Agilent 1260 Infinity II System and a C-18 RP-HPLC column (Zorbax 300 SB-C8/SB-C 18, Agilent, USA). The mobile phases consisted of A: water+0.1% TFA, and B: acetonitrile+0.1% TFA. The fluorescence-labeled peptides and proteins were eluted with a gradient of 5-40% (v/v) B in 30 min. The fluorescence-labeled products were fractionated using the absorption wavelength of the fluorophore (CF633: 633 nm) and the pooled samples were subsequently lyophilized and redissolved in the appropriate buffer. The protein concentrations were determined by means of UV-vis and the fluorescence-labeled samples were stored at −20° C.
The experiments for microscale thermophoresis (MST) were carried out using a Monolith NT.115 device (NanoTemper Technologies GmbH, GE). Fluorescence-labeled peptides were diluted in PBS, PH 7.4 to a final concentration of 100 nM. […] The data was evaluated with the thermophoresis effect, using the NT analysis software (version 1.5.41) supplied by the manufacturer. […]

Kd (α-syn; PBS 7.4, individual measurement): 0.0001 µM
koff (α-syn; PBS 7.4, as printed for SVD-1a): 3.13e-05 s⁻¹
Kd (full-length α-syn): 0.39 µM
SMILES: CC[C@@H](C)[C@@H](NC(=O)[C@@H](Cc1c[nH]cn1)NC(=O)[C@@H](CCC(=O)O)NC(=O)[C@@H](CCC(N)=O)NC(=O)[C@@H](Cc1c[nH]c2ccccc12)NC(=O)[C@@H](Cc1ccc(O)cc1)NC(=O)[C@H](NC(=O)[C@@H](CCC(=O)O)NC(=O)[C@@H](Cc1c[nH]cn1)NC(=O)[C@H](NC(=O)[C@H]1CCCN1C(=O)[C@@H](CC(C)C)NC(=O)[C@H](N)CCCNC(=N)N)[C@H](C)O)[C@H](C)O)C(=O)N[C@H](Cc1c[nH]c2ccccc12)C(=O)N[C@H](Cc1c[nH]cn1)C(=O)N[C@H](C)C(=O)N[C@H](CCCNC(=N)N)C(=O)N[C@H](CCCNC(=N)N)C(=O)N[C@H](CCCNC(=N)N)C(=O)N[C@H](CCCNC(=N)N)C(=O)N[C@H](CCCNC(=N)N)C(N)=O [SVD-1a, rlpthetywqehiwharrrrr] (H-[dR][dL][dP][dT][dH][dE][dT][dY][dW][dQ][dE][dH][dI][dW][dH][dA][dR][dR][dR][dR][dR]-NH2)
inhibition of α-syn aggregation in cells [1]: inhibited α-syn aggregation in αSynA53T-YFP cells in a dose-dependent manner
